Here are results for 1 compound from patent publication US8609718B2, “Pharmaceutical composition used in treatment of hyperproliferative skin conditions and malignant melanomas comprising pachastrissamine as active ingredient” (Catholic University Industry Academy Cooperation Foundation, priority 2009, dated 2013).

In assay [1] the test system is HaCaT cell line. Put plainly: Cell counting by hemocytometer, trypan blue exclusion, HaCaT. Format: cell-based, human. On the procedure: (§1) A HaCaT cell line was cultured in the same manner as described in Example 1. The cultured HaCaT cell line was plated onto a 60 mm plate at a concentration of 5×10^4 cells/well, and cultured in a CO2 incubator (37° C., 5%) for 24 hours. The cultured cells in respective plates were treated with pachastrissamine at a concentration of 10 μg/ml, and cultured in a CO2 incubator (37° C., 5%) for 24, 36, and 48 hours, respectively. After the culturing, the cells were washed with PBS, treated with trypsin-EDTA, and completely detached from the plate. Then, a hemocytometer was used to count the cells through trypan blue exclusion.
HaCaT, B16F10 and A375 cell lines were cultured in the same manner as described in Example 1. The cultured HaCaT cell line was plated onto a 60 mm plate at a concentration of 5×10^4 cells/well, and cultured in a CO2 incubator (37° C., 5%) for 24 hours. The cultured respective cells were divided into 4 groups. One group was added with only pachastrissamine (PA) at a concentration of 10 μg/ml; another group was added with lithium chloride (apoptosis inhibiting material) (at a final concentration of 300 nM) as well as pachastrissamine at a concentration of 10 μg/ml (PA+Li); and a third group was added with only lithium chloride (Li). The last group was a negative control group (Con) and was added with nothing. These groups were cultured in a CO2 incubator (37° C., 5%) for 24 hours, and then the number of cells were measured in the same manner as described in Example 2-2.

Assay [2] has as its system HaCaT cell line. Put plainly: TUNEL analysis of apoptosis. Format: cell-based, human. The settings on record: 10 μg/ml, 24 hours, control: only a limited part, FIG. 2E. The protocol:
A HaCaT cell line was cultured in the same manner as described in Example 1. The cultured HaCaT cell line was plated onto a 60 mm plate at a concentration of 5×10^4 cells/well, and cultured in a CO2 incubator (37° C., 5%) for 24 hours. The cultured cells were treated with pachastrissamine at a concentration of 10 μg/ml, cultured in a CO2 incubator (37° C., 5%) for 24 hours, and subjected to TUNEL analysis.
In order to carry out TUNEL analysis based on ApopTagFluorescein In Situ Apoptosis Detection Kit (Millipore), cells were cultured in a cover slip, and washed with PBS (pH 7.4). In order to completely fix cells, the cells were reacted in a PBS solution including 4% paraformaldehyde at room temperature for 30 minutes. Then, in order to make the cells permeable, the cells were washed with a PBS solution, and reacted in a PBS solution including 0.1% Triton X-100 at room temperature for 5 minutes. For cell marking, the cells were washed with PBS twice, and then diluted TUNEL reaction mixture was added to the cover slip. After incubating in a humidified chamber at 37° C. for 60 minutes, the cover slip was washed. The washed cover slip was reacted with a DAPI solution at room temperature for about 10 minutes, washed with PBS, mounted on a slide, sufficiently dried in a dark place, and analyzed by a fluorescent microscope. […]

The subject of assay [3] is malignant melanoma cell line B16F10. Put plainly: Mouse malignant melanoma (B16F10) lung metastasis model. Conditions: C57BL6 mouse, B16F10 1×10^6 via tail vein; inoculated once per 4 days (three times); lung on 14th day; FIG. 6. Format: in vivo. On the procedure:
In a C57BL6 mouse, pachastrissamine's effect on malignant melanoma metastasis inhibition was researched. A mouse (aged 6 weeks) was inoculated with a malignant melanoma cell line B16F10 (1×10^6) through a tail vein. After 24 hours from the inoculation, pachastrissamine was inoculated, and also, in a control group, PBS was inoculated in the same amount. Pachastrissamine was inoculated once per 4 days (three times), and on the 14th day from the inoculation of cells, the mouse was dissected to extract the lung. The extracted lung was immersed in 4% formalin solution for 16 hours or more, and washed for 16 hours or more. After the washing, the extracted lung was photographed, and other tissues were embedded in paraffin to make a block. Then, a tissue slice with a thickness of […] was prepared. The tissue slice was subjected to a deparaffin process for H&E (Hematoxylin & Eosin) staining, and then sequentially reacted with 100%, 90%, 80%, 70%, and 60% alcohol solutions to complete the hydration reaction. The completely hydrated slice was subjected to H&E staining, and then reacted with the alcohol solutions in reverse order of the hydration reaction to perform a dehydration reaction. When the dehydration reaction was completed, the slice was fixed on a slide and observed by a microscope.

A further assay has as its system B16F10 cell line. Description: Cell counting by hemocytometer, trypan blue exclusion, B16F10. Format: cell-based. Conditions: 24 hours. On the procedure: as §1
HaCaT, B16F10 and A375 cell lines were cultured in the same manner as described in Example 1. The cultured HaCaT cell line was plated onto a 60 mm plate at a concentration of 5×10^4 cells/well, and cultured in a CO2 incubator (37° C., 5%) for 24 hours. The cultured respective cells were divided into 4 groups. […] These groups were cultured in a CO2 incubator (37° C., 5%) for 24 hours, and then the number of cells were measured in the same manner as described in Example 2-2.

Regarding `CCCCCCCCCCCCCC[C@@H]1OC[C@H](N)[C@@H]1O` [pachastrissamine], the “number of cells over culturing time (cell proliferation)” value with HaCaT cell line [1] (10 μg/ml, 24, 36 and 48 hours, control group increased, FIG. 2b) is listed as “the number of cells decreased”. Also, the “number of cells compared to no treatment” value in the assay on HaCaT cell line [1] (10 μg/ml, 24 hours, FIGS. 2C, 2D) was “the number of cells was decreased”; with B16F10 cell line (10 μg/ml, FIGS. 2C, 2D), “the number of cells was decreased”. The “number of cells with lithium chloride as well as pachastrissamine, compared to only pachastrissamine” value is “the number of cells was higher” in the assay on HaCaT cell line [1] (pachastrissamine 10 μg/ml + lithium chloride 300 nM (PA+Li), 24 hours) and “the number of cells was higher” with B16F10 cell line (pachastrissamine 10 μg/ml + lithium chloride 300 nM (PA+Li)). Besides, in the assay on HaCaT cell line [2], the “apoptosis (TUNEL positive) among observed cell nuclei (DAPI stained)” value was “most of observed cell nuclei showed apoptosis”. In addition, the “malignant melanoma metastasis to the lung compared to control group” value in assay [3] is given as “significantly inhibited”.
